Data on five compounds can be found in US20150315218A1, “SALTS OF PRODRUGS OF PIPERAZINE AND SUBSTITUTED PIPERIDINE ANTIVIRAL AGENTS” (Bristol-Myers Squibb Company, priority 2004, published 2015).

Structures are written as SMILES. Structures can show the parent of a compound that is named as a salt. Where two headings read alike, the source gives them in different places. Bounds are passed on as bounds.

One data set relates to Caco-2 cells. Put plainly: Hydrolysis of prodrug in Caco-2 cells. The format is in vitro ADME.
Another data set can be described thus: pKa. The format is physicochemical. Particulars: read-out: pKa (potentiometric).
The nature of data set [1]: 2-week oral dose rat toxicology / TK study F. It is filed as in vivo. Particulars: rat, plasma, historical; for AUC(0-t): read-out: Mean AUC0-24 hr. The method, then: In the 2-week oral rat study F (n=six/sex/group), Compound IVe was administered at daily doses of 15, 75, or 200 mg/kg. […] On Day 14, AUC0-24 h values were slightly higher in females (≦644 μg*hr/ml) compared to males (526.88 μg*hr/ml) at dosages 200 mg/kg/day. The oral (PO) results from Study F are in Table 5.

The nature of data set [2]: Single dose study of Compound IVa in healthy human volunteers (capsule/solution, fasted/fed; first-in-human). The format is in vivo. Particulars: for AUCtotal / Cmax: n = 6. How it is done:
The parent compound IVa has been studied in human clinical trials. The compound was dosed in healthy human volunteers.
It is also readily apparent from the oral AUCs, that increases in drug exposure increased much more slowly and less than proportionally with dose. […] Between 200-800 mg dose range the increases in systemic exposure is dose-related although less than dose-proportional, while such exposure is dose independent above dose of 800 mg.
Dosing with a solution increased Compound IVa exposure.
The AUCs after a fed treatment were approximately 2.5 and 4.7 fold for 800 and 1800 mg doses, respectively, of those of the fasted treatment.
For the 800 mg capsule with food, the average plasma concentration is 1001 and 218 ng/mL at 8 and 12 hours post dose, respectively. The results supported a ql2 h or q8 h dosing regimen for a targeted Cmin value of at least 200 ng/mL after multiple doses. This value was selected based on preclinical data.

Data set [3] in a line: Multiple dose study of Compound IVa in healthy humans. The format is in vivo, human. Particulars: multiple Q12H doses, 14 days. How it is done: A placebo-controlled, ascending multiple-dose study to evaluate the safety, tolerability and pharmacokinetics of Compound IVa in healthy human subjects was carried out. Dosing was continued at 12 h intervals for 14 days. […] Thus, the exposure was better when dosing was combined with a high fat meal and exposure increases with dose were higher with a high fat meal.

Data set [4] can be described thus: Cytotoxicity assay (XTT dye reduction) in MT-2 cells. The format is cell-based. Particulars: human, six days. A general note: Tetrazolium assays rely on reduction of a dye to a coloured formazan, in cell work by metabolically active cells.
Description: Cytotoxicity assays were conducted with the same MT-2 cells, using methodology well known in the art. […] 50 μl of XTT reagent (1 mg/ml 2,3-bis[2-methoxy-4-nitro-5-sulfophenyl]-2H-tetrazolium-5-carboxanilide, 10 μg/ml phenazine methosulfate dissolved in phosphate buffered saline) was added to each well and incubated for 3 hours. Color formation by actively respiring cells was quantitated in a plate reader at 450 nm, and used to determine a CC50.
Data set [5] in a line: Capsule formulation studies of IVa (clinical form, spray dried form) vs Iab in fasted dogs. It is filed as in vivo, dog. Particulars: capsules, 20 mg/kg of IVa equivalent. How it is done:
Additional formulation studies of IVa were conducted in fasted dogs (n=2 per dose group). The dogs were administered either the clinical form or the spray dried form of IVa in capsules. The clinical capsule form of IVa was administered at a single dose of 20 mg/kg. The spray dried form of IVa was administered at 20, 75 and 200 mg/kg.

For data set [6] the following is noted: rat.
Description: (§1) The stability of Iab was studied in fresh blood and serum from rat, dog, monkey and human (n=2). The blood was collected in vacutainers containing K2EDTA (Becton Dickinson, Franklin Lakes, N.J.). The serum was collected in vacutainers containing no anticoagulant. Iab was incubated at a starting concentration of approximately 10 μM for 60-90 min at 37° C. Serial samples were taken at the pre-determined times. Aliquots of blood samples (200 μL) were first mixed with 100 μL of water followed by 400 μL of acetonitrile. The serum samples (50 μL) were added into microtainers containing K2EDTA (Becton Dickinson, Franklin Lakes, N.J.) followed by the addition of 100 μL of acetonitrile. The supernatant was analyzed for both Iab and IVa by LC/MS/MS. The stability of Ibb was studied in fresh blood and serum from rat, dog, monkey and human (n=2). The blood was collected in vacutainers containing K2EDTA (Becton Dickinson, Franklin Lakes, N.J.). The serum was collected in vacutainers containing no anticoagulant. Ibb was incubated at a starting concentration of approximately 15 μM for 90 min at 37° C. Serial samples were taken at the pre-determined times. Aliquots of blood samples (200 μL) were first mixed with 100 μL of water followed by 400 μL of acetonitrile. The serum samples (50 μL) were added into microtainers containing K2EDTA (Becton Dickinson, Franklin Lakes, N.J.) followed by the addition of 100 μL of acetonitrile. […] The stability of Icb was studied in fresh blood and serum from rat, dog, monkey and human (n=2). The blood was collected in vacutainers containing K2EDTA (Becton Dickinson, Franklin Lakes, N.J.). The serum was collected in vacutainers containing no anticoagulant. Icb was incubated at a starting concentration of approximately 10 μM for 90 min at 37° C. Serial samples were taken at the pre-determined times. Aliquots of blood samples (200 μL) were first mixed with 100 μL of water followed by 400 μL of acetonitrile. The serum samples (50 μL) were added into microtainers containing K2EDTA (Becton Dickinson, Franklin Lakes, N.J.) followed by the addition of 100 μL of acetonitrile.
The conditions of data set [7]: dog.
Description: as §1
The conditions of data set [8]: monkey.
Description: as §1
The conditions of data set [9]: human.
Description: as §1
For data set [10] the following is noted: pH 7.5.
Description: The stability of Iab was also evaluated, as described above, in Tris-HCl buffer (0.1 M, pH 7.5). The stability of Ibb was also evaluated, as described above, in Tris-HCl buffer (0.1 M, pH 7.5). The stability of Icb was also evaluated, as described above, in Tris-HCl buffer (0.1 M, pH 7.5).
For data set [11] the following is noted: rat, 10 μM.
Description: as §1
For data set [12] the following is noted: dog, 10 μM.
Description: as §1
The conditions of data set [13]: monkey, 10 μM.
Description: as §1
[14] abbreviates: 1800 mg capsule, high fat meal vs fasted.
Setting [15] is: fed (high fat meal), dose ratio 1:2.3 (800 mg vs. 1800 mg).

As for `O=C(C(=O)N1CCN(C(=O)c2ccccc2)CC1)c1cn(COP(=O)(O)O)c2c(-n3ccnn3)ncc(F)c12` [Ibb, [3-[(4-benzoylpiperazin-1-yl)(oxo)acetyl]-4-fluoro-7-(1H-1,2,3-triazol-1-yl)-1H-pyrrolo[2,3-c]pyridin-1-yl]methyl dihydrogen phosphate, L-lysine salt (1:1)], in the data set with Caco-2 cells, the “hydrolysis to parent in Caco-2 cells” value is on record as “completely hydrolyzed”. In addition, in “pKa”, the pKa (usually the negative logarithm of the acid dissociation constant) was found to be 6.1.

For the compound `COc1cnc(-n2cnc(C)n2)c2[nH]cc(C(=O)C(=O)N3CCN(C(=O)c4ccccc4)CC3)c12` [IVc], the Cmax (usually the peak of the concentration-time curve) in data set [1] (rats PO 15 mg/kg (soln), 80/10/10 PEG-400/Ethanol/0.1N NaOH) was 42 µM; in data set [1] (rats PO 75 mg/kg (susp)), 65 µM; in data set [1] (rats PO 200 mg/kg (susp)) it was 76 µM. In addition, the AUC(0-t) in data set [1] (rats PO 15 mg/kg (soln)) was 418 µM·h; in data set [1] (rats PO 75 mg/kg (susp)), 792 µM·h; in data set [1] (rats PO 200 mg/kg (susp)) it was 1080 µM·h.

As to `COc1ncc(OC)c2c(C(=O)C(=O)N3CCN(C(=O)c4ccccc4)CC3)c[nH]c12` [IVa, N-(benzoyl)-N′-[(4,7-dimethoxy-6-azaindol-3-yl)-oxoacetyl]piperazine], in data set [2] (200 mg), the “AUC of the solution relative to the capsule” value is on record as about 3 fold. Besides, the “Cmax of the solution relative to the capsule” value in data set [2] (200 mg) was “approximately 8 fold”. For the same compound, the “relative bioavailability (fed vs. fasted)” value is recorded as 293% in [2] (800 mg) and 509% in data set [2] (1800 mg). For the same compound, the “AUCtotal” value in data set [2] (800 mg, Fasting) came to 22 ± 12 µM·h; in [2] (800 mg, Fed) it was 53 ± 10 µM·h; in [2] (1800 mg, Fasting), 19 ± 5.8 µM·h; in data set [2] (1800 mg, Fed) it was 82 ± 16 µM·h. For the same compound, the “AUC Fed/Fasting Ratio” value in data set [2] (setting [14]) was found to be 4.3. In addition, in data set [2] (setting [14]), the “Cmax Fed/Fasting Ratio” value is 4.5. The “ratio of AUC” value in data set [2] (setting [15]) was found to be 1.5. In [2] (setting [15]), the “ratio of Cmax” value was 1.6. In data set [2] (human, plasma, oral, 200 mg, read-out: relative bioavailability of the capsule to the solution formulation), the bioavailability (as a rule, the share of a dose that reaches the circulation, judged against a reference dose that is usually intravenous) was determined as 32%. The Cmax in data set [2] (human, plasma, oral, 800 mg, Fasting) came to 3.7 ± 1.1 µM; in [2] (human, plasma, oral, 800 mg, Fed), 9.8 ± 1.3 µM; in data set [2] (human, plasma, oral, 1800 mg, Fasting), 3.3 ± 0.84 µM; in [2] (human, plasma, oral, 1800 mg, Fed), 15 ± 5 µM. For the same compound, in data set [2] (human, plasma, oral, 800 mg capsule with food, 8 hours post dose), the concentration at 8 h amounted to 1000 ng/mL. For the same compound, the concentration at 12 h in data set [2] (human, plasma, oral, 800 mg capsule with food, 12 hours post dose) is 218 ng/mL. The Tmax (as a rule, the time at which the peak concentration occurs) in data set [2] (human, plasma, oral, fed, read-out: median Tmax) was found to be 4 h. The compound also had an accumulation in data set [3] of at most 1.5 fold. In addition, the CC50 (usually the concentration giving 50% cytotoxicity) at 6 days in data set [4] is over 10 µM.

For `COc1cnc(OC)c2c1c(C(=O)C(=O)N1CCN(C(=O)c3ccccc3)CC1)cn2COP(=O)(O)O` [Iab, {3-[(4-benzoylpiperazin-1-yl)(oxo)acetyl]-4,7-dimethoxy-1H-pyrrolo[2,3-c]pyridin-1-yl}methyl dihydrogen phosphate, L-lysine salt (1:1)], in data set [5], the “AUC of IVa from the prodrug relative to the clinical form of IVa” value was determined as 37 times and the “Cmax of IVa from the prodrug relative to the clinical form of IVa” value is listed as 45 times.

As to `COc1cnc(-n2cnc(C)n2)c2c1c(C(=O)C(=O)N1CCN(C(=O)c3ccccc3)CC1)cn2COP(=O)(O)O` [Icb, [3-[(4-benzoylpiperazin-1-yl)(oxo)acetyl]-4-methoxy-7-(3-methyl-1H-1,2,4-triazol-1-yl)-1H-pyrrolo[2,3-c]pyridin-1-yl]methyl dihydrogen phosphate, 2-amino-2-(hydroxymethyl)propane-1,3-diol salt (1:1)], the “conversion of prodrug to parent in blood containing EDTA” value in data set [6], in [7], in data set [8] and in [9] was under 2% in each case. Further, the “Icb” value in [6] (0 min) was found to be 12 µM; in data set [6] (15 min) it was 11 µM; in data set [6] (90 min), 12 µM; in data set [7] (0 min), 10 µM; in [7] (15 min), 10 µM; in [7] (90 min), 11 µM. Also, the “Icb” value in data set [8] (0 min) is 12 µM; in data set [8] (15 min), 12 µM; in [8] (90 min), 11 µM; in data set [9] (0 min, 10 μM) it was 11 µM; in data set [9] (15 min) it was 11 µM; in data set [9] (30 min) it was 13 µM. Besides, the “Icb” value in data set [9] (45 min, 10 μM) stood at 12 µM; in data set [9] (60 min, 10 μM), 11 µM; in [9] (90 min, 10 μM), 11 µM; in data set [10] (0 min, 10 μM) it was 11 µM; in data set [10] (15 min), 11 µM; in [10] (30 min), 11 µM. Besides, the “Icb” value in data set [10] (45 min, 10 μM) came out at 11 µM; in [10] (60 min, 10 μM) it was 10 µM; in [10] (90 min, 10 μM) it was 11 µM; in data set [11] (0 min) it was 7.6 µM; in data set [11] (15 min) it was 6.5 µM; in data set [11] (90 min) it was 2.1 µM. For the same compound, the “Icb” value turned out to be 10 µM in data set [12] (0 min); 9.7 µM in data set [12] (15 min); 6.9 µM in data set [12] (90 min); 9.3 µM in [13] (0 min); 7.1 µM in data set [13] (15 min); 1.1 µM in [13] (90 min). Further, the “stability / conversion of prodrug to parent in Tris-HCl buffer” value in data set [10] (90 min) was “less than 2%”.
